ChEMBL document CHEMBL3507680, “University of Dundee, Gates Library screen for HepG2 cell viability”

Assay: Human HepG2 cell viability assay in 384 well format
Assay type: toxicity, cell-based
Design: dose 125 nL, time 70.5 hour; cytotoxicity at 70.5 h: concentration not given beside the values
Conditions: HepG2 cells, read-out: Inhibition

Row | Compound | cytotoxicity at 70.5 h [%]
1 | CCn1cnnc1CNC(=O)CCC(=O)c1ccc2c(c1)OCCO2 | -9.39
2 | COc1cccc(C2C3=C(COC3=O)Nc3[nH]nc(C)c32)c1OC (stereo not drawn) | -3.26
3 | CCc1cc(N2CCN(c3cnccn3)CC2)n2nc(C)c(C)c2n1 | 10.7
4 | CCOCC1c2c(cnn2C)CCN1C(=O)c1ccncn1 (stereo not drawn) | -14.6
5 | COc1cnc(N2CCCC(c3ncc[nH]3)C2)nc1 (stereo not drawn) | -3.19
6 | Cc1cc(C)n(C2CCCN(C(=O)c3c[nH]c(=O)c(Cl)c3)C2)n1 (stereo not drawn) | -8.77
7 | Cc1oc(C)c(C(=O)NCc2cccnc2N(C)C)c1C | -12.5
8 | O=C(CC1CC2(CCN(CC3CC3)CC2)Oc2ccccc21)NC1CC1 (stereo not drawn) | -5.53
9 | CCN(C)C[C@@H]1CN(C(=O)NC2CCCCC2)C[C@@H]1CO | -10.1
10 | Cc1ccnc(NS(=O)(=O)c2cc(C(N)=O)n(C)c2)c1 | 0.984
11 | Cn1c(CN2CCCCC2)nnc1C1CCCN(c2ccncc2F)C1 (stereo not drawn) | -5.33
12 | C[C@H](NS(C)(=O)=O)C(=O)NCc1cc(-c2ccco2)n(CC(F)(F)F)n1 | -4.57
13 | Cn1cc(C(=O)NCC2CCN(C(=O)NCC(F)(F)F)CC2)cn1 | 2.26
14 | O=C([C@@H]1CCCN1c1nccc(Nc2ccccc2)n1)N1CCCCC1 | 20.9
15 | COCC1CC2(CCN(Cc3ccco3)CC2)CN1C(C)C (stereo not drawn) | 6.8
16 | CNC(=O)[C@H]1C[C@@H]2CN(C(=O)c3ccc(C)o3)C[C@@H]2N1S(C)(=O)=O | -9.33
17 | Cc1cnn(CC2CN(Cc3nc(C4CC4)no3)CCO2)c1 (stereo not drawn) | -6.98
18 | Cc1csc(-c2cccc(NC(=O)N3CCOCC3)c2)n1 | -3.32
19 | FC(F)(F)c1cccnc1N1CCC(OC2CCOCC2)CC1 | -6.19
20 | O=C(NCCC1CCN(CC(F)(F)F)CC1)C1CCOC1 (stereo not drawn) | 3.01
21 | COCCN(Cc1cnn(C)c1)Cc1ccc(C)o1 | -9.85
22 | CCN(CC(=O)NC(C)C)S(=O)(=O)N1CCCCC1C (stereo not drawn) | -3.14
23 | COCC(=O)N1CCC2(CC1)COCCN2CCN(C)C | -19.5

Row | Compound | cytotoxicity at 70.5 h [%]
24 | CC(C(=O)NCc1ccnc(N2CCCCCC2)c1)n1cccn1 (stereo not drawn) | 17.8
25 | c1cc(CN2CC[C@H]3CO[C@H](CN4CCOCC4)[C@H]3C2)cs1 | -11.2
26 | Cc1cc(C(=O)N2CCN(c3nc4c(C(C)C)cccc4s3)CC2)no1 | 3.44
27 | O=C(NCCCn1cccn1)C1(c2ccc(F)cc2)CC1 | -2.75
28 | Cc1nc(CN2CCOCC3(CCCN(c4cnccn4)C3)C2)cs1 (stereo not drawn) | -2.38
29 | O=C1NCCCc2[nH]c(Cc3ccc(F)cc3)nc21 | -6
30 | CC(C)N1CC(NC(=O)c2ccc(Cl)s2)CC1=O (stereo not drawn) | -6.6
31 | CC(C)N1CCC2(CC1)CC(NS(C)(=O)=O)c1ccccc1O2 (stereo not drawn) | 4.16
32 | O=C(CCc1nccs1)N1CCC(N2CCNC2=O)CC1 | -3.7
33 | COc1ncccc1C(=O)Nc1ccccc1-c1ccc(=O)n(C)n1 | 3.64
34 | Cc1ncc(CN(C)CC(O)c2ccc(OC(F)(F)F)cc2)s1 (stereo not drawn) | -3.36
35 | CCNc1ncc(C(=O)N2CCOC(CCCC(C)C)C2)cn1 (stereo not drawn) | -7.7
36 | Cc1nn(CCO)cc1CN1CCC(N2CCC(O)CC2)CC1 | 1.99
37 | CC1CN(c2ccccc2Cl)C(=O)CN1C(=O)c1c[nH]c(=O)c(Cl)c1 (stereo not drawn) | -0.811
38 | Cc1noc2ncc(S(=O)(=O)N3CCCC(C)(C)CC3)cc12 | -2.62
39 | CC(=O)NCC(=O)N1CCc2[nH]c(-c3ccccc3)nc2C1 | -1.22
40 | Cn1cnc2c1CCN(CC(=O)NC1CCCCNC1=O)C2 (stereo not drawn) | 15.2
41 | Cc1ccc(Cl)c(C)c1NC(=O)N1CCCN(Cc2ccccn2)CC1 | 2.01
42 | CN1C[C@H](O)[C@]2(CCN(Cc3ccc(OC(F)(F)F)cc3)C2)S1(=O)=O | -1.23
43 | CCc1nc(CN2CCCN(C(=O)c3c(C)noc3C)CC2)cs1 | -12.9
44 | Fc1ccc(-c2n[nH]cc2-c2ccnc(NCCN3CCCC3)n2)cc1 | 24
45 | COCCN1CCC2(CCCN(c3ncccn3)C2)C1 (stereo not drawn) | -12.6
46 | CN(C1CCN(C(=O)NCCc2ccc(F)cc2F)CC1)S(C)(=O)=O | -5.3

Row | Compound | cytotoxicity at 70.5 h [%]
47 | CCN(Cc1cnn(CC)c1)C(=O)Cn1c(=O)ccc2ccccc21 | -5.92
48 | Cc1cc(C2CCCN(C(=O)c3ccc(C)[nH]c3=O)C2)n[nH]1 (stereo not drawn) | -13.9
49 | COC(=O)c1cccn1C1CCN(CCN2C(=O)CCC2=O)CC1 | -5.66
50 | Cc1cnn(CC(C)NCc2cc(=O)n3cc(C)ccc3n2)c1 (stereo not drawn) | -6.57
51 | CC1COCCN1Cc1nc(-c2cccs2)no1 (stereo not drawn) | -31
52 | O=C(c1ccc(S(=O)(=O)NCCc2ccccn2)cc1)N1CCCC1 | -14.8
53 | CN1C[C@H]2N(c3ncccn3)CCC[C@@]2(C(=O)NCC2CC2)C1 | -6.84
54 | COc1ccc(OC2CCN(C(=O)CCc3n[nH]c(C)n3)CC2)cc1 | 22.6
55 | Cc1nn(CC(=O)N2CCC(Nc3cccnn3)CC2)c(C)c1Cl | 28.5
56 | CCn1ncc(Nc2[nH]cnc3nc(C)nc2-3)c1C | -6.65
57 | CC(C)(C)N1CCN(C(=O)Nc2cc(C(F)(F)F)c[nH]c2=O)CC1 | 10.7
58 | Cc1ccccc1N1CC2(CCN(S(=O)(=O)c3cccs3)C2)CC1=O (stereo not drawn) | 14
59 | CCN1C(=O)C2(CCOCC2)c2cc(NC(=O)c3ccco3)ccc21 | -8.84
60 | CCC1=N[C@@]2(CC[C@@H]3CN(Cc4ccc(Cl)cc4)C[C@@H]32)C(=O)N1C | -15.2
61 | Cc1ncccc1OC1(C(=O)NCc2noc(C(C)C)n2)CCNCC1 | -5.62
62 | O=C(NC[C@]1(O)CN(Cc2ccccc2F)C[C@H]1O)c1cscn1 | -8.78
63 | CN(C)CCn1c2c(ccc1=O)CC(NCc1cccnc1)CC2 (stereo not drawn) | -0.247
64 | Cc1cccc(-c2noc(CN3CCC(N4CCNC4=O)CC3)n2)c1 | -0.858
65 | O=c1ccc(-n2ccnc2)nn1CCNS(=O)(=O)c1ccccc1Cl | -1.86
66 | CN1CCCCC1CCC(=O)NCCSc1cnn[nH]1 (stereo not drawn) | -2.59
67 | c1cnnc(N2CCCC2CNCc2nc(C3CC3)no2)c1 (stereo not drawn) | -11.8
68 | CNC(=O)c1ccc(-c2ccc(CNS(=O)(=O)N(C)C)cc2)nc1C | -0.408
69 | COCCN1CCc2ncnc(N(C)C)c2CC1 | -10.9

Row | Compound | cytotoxicity at 70.5 h [%]
70 | CN(C)c1ncccc1CNS(=O)(=O)c1cc(F)ccc1F | -11.5
71 | COC(=O)CSCc1noc(-c2ccc(Cl)cc2)n1 | -13.5
72 | CCOCC1CN(Cc2cccnc2)Cc2nn(C)cc21 (stereo not drawn) | -11.3
73 | CC(Oc1cccc(F)c1)C(=O)N(CC(N)=O)C1CCCC1 (stereo not drawn) | 0.47
74 | O=C(Cc1cn2ccccc2n1)N1CCCC(n2ccnc2)C1 (stereo not drawn) | -3.99
75 | N#Cc1ccc(F)c(CN2CCCC2Cn2cncn2)c1 (stereo not drawn) | -5.36
76 | Cc1nn(C)c2c(NCCCn3cccn3)ncnc12 | -6.36
77 | CCN1CCOC(CNCc2cnc(N(CC)CC)s2)C1 (stereo not drawn) | 5.52
78 | COc1ccc(Cl)cc1NC(=O)CCC1CCCN(Cc2ncon2)C1 (stereo not drawn) | -1.15
79 | COc1ccc(OCCN(C)c2cc(C)nc(N)n2)cc1 | -6.24
80 | CCOc1ncccc1NC(=O)C1CCS(=O)(=O)C1 (stereo not drawn) | 0.736
81 | COc1cc(F)ccc1-c1ncccc1NC(=O)C(C)C | -7.03
82 | CCCn1nccc1C(=O)N1CCN(C2CCc3ccccc3C2)CC1 (stereo not drawn) | -7.89
83 | CCCc1noc(CNC2CCCN(Cc3noc(C4CC4)n3)C2)n1 (stereo not drawn) | -3.33
84 | Cc1csc(N2CCN(CC(=O)Nc3ccncc3)CC2C)n1 (stereo not drawn) | 9.84
85 | CC(C)(C)C(=O)NCCNCc1ccc(Cl)c2cccnc12 | -0.239
86 | CSc1nc2cc(C)n(CC(N)=O)c2c(=O)n1CC(C)C | 0.849
87 | O=S1(=O)COCCN1CCOc1ccccc1 | 17.3
88 | COc1ccc2c(c1)CCCN2C(=O)NC1CCCCNC1=O (stereo not drawn) | 23.6
89 | CCC(O)CN1CCN(C(=O)Cc2ccccc2Cl)CC1 (stereo not drawn) | -0.929
90 | c1cnc(N2CCO[C@H]3CN(Cc4csnn4)C[C@H]32)nc1 | -11.7
91 | COc1ccc2c(c1)C(NCCc1ncc(C)s1)CCCO2 (stereo not drawn) | -7.84
92 | Cn1[nH]c(C2CCC2)c(-c2ccc3c(c2)OCO3)c1=N | -3.82

Row | Compound | cytotoxicity at 70.5 h [%]
93 | CCOC(=O)[C@@H]1[C@@H](OC)C(=O)N(C)C12CCN(C(=O)C(CC)CC)CC2 | -7.55
94 | Cc1cc(C)cc(-n2ncc3c2CCCC3N)c1 (stereo not drawn) | -5.06
95 | c1csc(C2(NCc3csc(C4CC4)n3)CCCC2)n1 | -7.26
96 | O=C([C@@H]1C[C@@H]2CCN(C3CCOCC3)C[C@H]2O1)N1CCCC1 | -4.52
97 | CCN(CC)C(=O)C1CCC(=O)N(CCc2cccc(F)c2)C1 (stereo not drawn) | 19.7
98 | COc1ccc(Cl)cc1CS(=O)(=O)CC(=O)N(C)Cc1ccccc1F | -12.1
99 | Cn1nc(C(=O)N2CCCCC2c2nc3cc(F)ccc3[nH]2)ccc1=O (stereo not drawn) | 6.51
100 | CC1=C(C(N)=O)C(c2cn(C)nc2C)N2C(=O)CSC2=N1 (stereo not drawn) | -9.38
101 | NCCN1CCC(c2nnc(Cn3ccnc3)n2C2CC2)CC1 | -3.91
102 | Cn1cc(N2CC3(COCCN(Cc4nccs4)C3)OCC2=O)cn1 (stereo not drawn) | -9.93
103 | CC(C#N)CSc1ccccc1NCC(=O)NCc1cccs1 (stereo not drawn) | 0.858
104 | O=C(c1c[nH]cn1)N1CCC(F)(F)C2(CCN(c3ncccn3)C2)C1 (stereo not drawn) | -5.46
105 | CC1=N[C@@]2(CC[C@@H]3CN(S(=O)(=O)CC(C)C)C[C@@H]32)C(=O)N1C | -10.5
106 | CC(C)CN1Cc2c(C(=O)N(C)C)ncn2-c2ccccc2S1(=O)=O | -6.58
107 | O=C(NC1CC1)C1=CC2(CCN(CCO)CC2)c2ccccc21 | -11
108 | Cc1nsc2ncc(C(=O)N3CCCC3c3cnn(C)c3)cc12 (stereo not drawn) | -0.553
109 | O=S(=O)(NC1CCC12CCN(CC1CCOCC1)CC2)c1ccccc1 (stereo not drawn) | -2.17
110 | COCCSCC(=O)NCc1ccnc(N(C)C)c1 | -8.31
111 | CCc1ncnc(N(C)CC2CCCCO2)c1F (stereo not drawn) | 2.36
112 | CC(C)c1cc(C2CCN(C(=O)Cn3nc4ccccc4n3)CC2)[nH]n1 | -5.96
113 | CN(C)CCNC(=O)Cn1cnc2cc(NC(=O)C3CC3)ccc21 | -10.6
